Experimental data as given in patent US8865659B2, “Compositions for prevention or treatment of Hepatitis C virus containing ginsenoside Rg3 as an active ingredient” (priority 2012, dated 2014).

Experiments:
HCV CORE = assay: Western blotting against HCV CORE in JFH-1 infected Huh 7.5.1 cells; type: cell-based, Hepatitis C virus (JFH-1)
Protocol: The experiment was carried out as follow. First, 200,000 Huh 7.5.1 cells were placed in a 60×15 mm cell culture dish. Next day, Japanese Fulminant Hepatitis-1 virus (JFH-1) stock vial which was stored in −70° C. refrigerator was taken out and thawed out in a container filled with ice-water. The culture medium was collected from the cultured 60×15 mm cell culture dish, washed with 1×PBS and collected, again. 1.5 ml of JFH-1 virus solution per 60×15 mm cell culture dish each was added. The dish was shaken to cover the surface sufficiently. The dish was laid in a 5% CO2 incubator at 37° C. for 6 hours and after that, the supernatant was draw out. 1×PBS was spread on the cell surface as slow as possible and after one time washing, cells were collected. 5 ml of cell culture media was added to control and JFH-1 treatments groups. At the last step of virus-infection, 5 ml CM and each […] of ginsenosides which was set to 50 mM concentration were added to the cell culture media. After that, the cell culture media was laid in a 5% CO2 incubator at 37° C. After 72 hours, the following steps were carried out.
As described in the above Example 3, the Huh 7.5.1 cells were treated with each 100 μM of seven ginsenosides (Ro, Re, Rg1, Rg2, Rg3, Rh1, Rh2). After 72 hours, a western blotting analysis was carried out for analyzing virus suppression effect against HCV CORE and cleaved PARP.
Specific western blotting analysis carried out was as follow. First, the above described samples were prepared, mixed with a sample buffer in tubes and heated at 100° C. for 10 minutes. The tubes were cooled on ice and centrifuged. The electrophoresis was carried out with the above samples and molecular weight markers, and then they were transferred to a PVDF membrane (hydrophobic). After blocking with 5% skin milk for an hour, each primary antibody was added. After staying overnight at 4° C., washings three times for every 10 minutes were conducted, and the blocking was carried out with 5% skin milk for an hour at the room temperature. After that, each secondary antibody was added, and the reaction for an hour and washing three times for every 10 minutes were conducted. Then, the membrane was stained by 1:1 mix with detection reagents A (Luminol Enhancer solution) and B (Peroxide solution) and developed with X ray film.
To examine the dose-dependent anti-virus effect of ginsenoside Rg3, western blotting analysis against cleaved PARP and HCV CORE were carried out with the samples of ginsenosides Rg3 treatment concentration at 10 μM, 25 μM, 50 μM and 100 μM each.
To examine the dose-dependent anti-virus effect of ginsenoside Rh2, western blotting analysis against cleaved PARP and HCV CORE were carried out with the samples of ginsenosides Rh2 treatment concentration at 10 μM, 25 μM and 50 μM each. […]

[1] = test system: JFH-1 virus infected Huh 7.5.1 cell; assay: MTT assay, cytotoxicity of ginsenosides on liver cancer cell line; type: cell-based; details: 10, 25, 50 and 100 μL concentration (so in the source), 72 hours
Protocol: MTT assay was conducted to identify cytotoxicity of ginsenosides.
Specifically, the cells (Huh7.5.1) were seeded at the rate of 1×10^4 cells (in 100 μL)/well in 96 well plates, and incubated in 5% CO2 incubator for less than 24 hours. And after the samples were washed with 1×PBS once and treated with the rate of 50 ul JFH-1 virus/well, and replaced in the 5%, CO2 incubator for six hours. After taking out the cell samples from the incubator, the samples were washed with 1×PBS once and replaced in the culturing media comprising 10, 25, 50 and 100 μL concentration of the above stated seven (7) ginsenosides in Example 3, respectively. After the cells were incubated in 5% CO2 incubator for 72 hours, 20 μl of assay reagent, EZ Cytox, was seeded into each well with the care of no bubble producing. And then, the treated cells were incubated in 5% CO2 incubator for 2.5 hours, followed by examining absorbance at 420 nm with Microplate Reader (Molecular Devices, Minn.). DMSO was the solvent used when treating with ginsenoside, and both the control group and the cells infected with JFH-1 group were also treated with the solvent DMSO.

thioredoxin = assay: Western blotting against thioredoxin in JFH-1 infected Huh 7.5.1 cells; type: cell-based; details: 100 μM, 72 hours
Protocol: To examine the ginsenoside Rg3 effect onto anti-oxidant enzymes, western blotting analysis against thioredoxin, an anti-oxidant enzyme induced by Hepatitis C, was carried out. the analysis was conducted 72 hours after the samples of Huh 7.5.1 cells treated with each 100 μM of seven ginsenosides (Ro, Re, Rg1, Rg2, Rg3, Rh1, Rh2) as described above in the Example 3.
Specifically, western blotting analysis was carried out as follow. First, the above described samples were prepared, mixed with a sample buffer in tubes, and heated at 100° C. for 10 minutes. The tubes were cooled on ice and centrifuged. The electrophoresis was carried out with the prepared samples and molecular weight markers were put in. And then, they were transferred to a PVDF membrane (hydrophobic). After blocking with 5% skin milk for an hour, primary antibodies of thioredoxin was added. After staying overnight at 4° C., washing three times for every 10 minutes, blocking with 5% skin milk for an hour at the room temperature was carried out. After that, each secondary antibody was added and waited one hour for its reaction and washing three times for every 10 minutes were carried out. Then, the membrane was stained by 1:1 mixture of detection reagents A (Luminol Enhancer solution) and B (Peroxide solution) and developed with X ray film.

In the case of `CC(C)=CCC[C@](C)(O)[C@H]1CC[C@]2(C)[C@@H]1[C@H](O)C[C@@H]1[C@@]3(C)CC[C@H](O[C@@H]4O[C@H](CO)[C@@H](O)[C@H](O)[C@H]4O[C@@H]4O[C@H](CO)[C@@H](O)[C@H](O)[C@H]4O)C(C)(C)[C@@H]3CC[C@]12C` [ginsenoside Rg3], the “virus suppression effect (HCV CORE), dose dependence” value (HCV CORE; 10 μM, 25 μM, 50 μM and 100 μM) is reported as “dose-dependent manner”, the “HCV CORE” value (HCV CORE; 100 μM, 72 hours) is reported as “remarkably decreased” and the “anti-virus effect compared with interferon” value (HCV CORE; comparison with PegIFN alpha-2b) is reported as “same anti-virus effect as the interferon therapeutics”. The “cytotoxicity (MTT assay)” value [1] was “no cytotoxicity” and the thioredoxin (thioredoxin) was “decreased”.
